Assay results published in PubChem BioAssay (NCI).
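Briefly, cells in 96-well plates were exposed to five compound concentrations for 48 h, and endpoints were estimated by linear interpolation. TGI is the concentration that stops growth completely.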

Columns and labels:
Experiment in all cases: DTP human tumour cell line panel, 48 h
[1] = system: 786-0 renal
[2] = system: ACHN renal
[3] = system: HOP-92 NSCLC
[4] = system: MOLT-4 leukemia
[5] = system: NCI-H460 lung
[6] = system: SK-MEL-2 melanoma
[7] = system: SK-MEL-28 melanoma
[8] = system: SK-MEL-5 melanoma
[9] = system: SK-OV-3 ovarian
[10] = system: SN12C renal
[11] = system: SR leukemia
[12] = system: SW-620 colon
[13] = system: U251 CNS

| SMILES | TGI [1] [µM] | TGI [2] [µM] | TGI [3] [µM] | TGI [4] [µM] | TGI [5] [µM] | TGI [6] [µM] | TGI [7] [µM] | TGI [8] [µM] | TGI [9] [µM] | TGI [10] [µM] | TGI [11] [µM] | TGI [12] [µM] | TGI [13] [µM] |
| --- | --- | --- | --- | --- | --- | --- | --- | --- | --- | --- | --- | --- | --- |
| S=C1NCCN1C(=S)Nc1ccccc1 | > 100 | > 100 | > 100 | > 100 | > 100 | > 100 | > 100 | > 100 | > 100 | > 100 | > 100 | > 100 | > 100 |
| CC(=O)OC(CCC1(C)OC1COc1ccc(CCNC(=O)C=C(C)C)cc1)C(C)(C)OC(C)=O (centres undefined) | > 100 | > 100 | > 100 | 39.1 | > 100 | > 100 | > 100 | 15.6 | > 100 | > 100 | > 74.4 | > 100 | > 100 |
| N/C(=N\S(=O)(=O)c1ccc(-c2ncccc2C(F)(F)F)s1)Nc1ccc(Cl)cc1 | 34.7 | 30 | 30 | 53.7 | 25.9 | 29.3 | 34.4 | > 100 | 33.7 | 38.3 | 46.4 | 35.6 | 25.8 |
| C=CC1(CC[C@]2(c3ccc(OC)c(OC)c3)C=[N+]([O-])O[C@H](O[C@@H]3CCCC[C@H]3C(C)(C)c3ccccc3)C2)OCC(C)(C)CO1 | > 45.8 | > 50 | > 46.6 | 21.6 | > 59.8 | 28.7 | 53.8 | 28.3 | > 65.3 | 22.8 | > 38.9 | > 46.5 | > 50.5 |
| OC(C/C=N/N=C/CC(O)(C(F)(F)Cl)C(F)(F)Cl)(C(F)(F)Cl)C(F)(F)Cl | > 10 | > 10 | > 10 | > 10 | > 10 | > 10 | > 10 | > 10 | > 10 | > 10 | > 10 | > 10 | > 10 |
| Nc1c(S(=O)(=O)c2ccccc2)c2nc3ccccc3nc2n2c1nc1ccccc12 | > 50.5 | > 100 | > 100 | > 100 | > 100 | > 100 | > 62.3 | > 66.2 | > 100 | > 87.2 | > 100 | > 100 | > 47.5 |
| COc1cccc(CC(=O)N2CCN(CCCc3ccccc3)CC2)c1 | > 100 | > 100 | > 100 | > 100 | > 100 | > 100 | > 100 | 77.1 | > 100 | > 100 | > 100 | > 100 | > 100 |
| CCOC(=O)C(NC(=O)c1ccccc1)(N1CCN(c2cc3c(cc2F)c(=O)c(C(=O)O)cn3C2CC2)CC1)C(F)(F)F (centres undefined) | > 100 | 58.9 | 38 | 32.8 | 44.6 | 38.9 | 74.6 | 29.4 | 80.2 | 79.3 | 45.2 | 51.1 | > 100 |
| COc1cc2c(cc1O)NC(=O)[C@@H]1CCCN1C2=O | > 100 | > 100 | > 100 | > 100 | > 100 | > 100 | > 100 | > 100 | > 100 | > 100 | > 100 | > 100 | > 100 |
| Cc1ccc(C(=O)NCc2ccccc2)cc1N=NN(C)C | > 100 | > 100 | > 100 | > 100 | > 100 | > 100 | > 100 | > 100 | > 100 | > 100 | > 100 | > 100 | > 100 |
| CN1CCc2c(sc3[nH]c(=S)[nH]c(=S)c23)C1 | > 100 | > 100 | > 100 | > 100 | > 100 | > 100 | > 100 | > 100 | > 100 | > 100 | > 100 | > 100 | > 100 |
| O=C1C=C(Nc2ccc(S(=O)(=O)Nc3nccs3)cc2)c2ccccc2C1=O | > 100 | 63.5 | > 100 | > 100 | > 100 | 82.4 | 45.2 | 38.7 | > 100 | 47.2 | > 100 | 43 | 48 |
| COc1ccc(N2C(=O)C(=O)N(c3ccc(N=Nc4ccccc4)cc3)C2=S)cc1 | 35.5 | 34.4 | 31.7 | > 100 | 34.1 | 35.1 | 41.2 | 30.4 | 68.4 | 33.2 | > 100 | 32.6 | 32.6 |
| COc1ccc(C2c3cc4c(cc3OC(N3CCOCC3)C2C)OCO4)cc1 (centres undefined) | > 100 | > 100 | 58.2 | > 31.6 | > 100 | > 71 | > 88 | 72.4 |  | > 100 | > 76.1 | > 100 | 68.1 |
| CCCCCCCCCCCC(=O)OC[C@@H](C[As](=O)(O)O)OC(=O)CCCCCCCCCCC | 26.5 | 10.4 | 4.44 | > 77.2 | 11.1 | 7.48 | 11.3 | 3.91 | 26.2 | 19.8 | 57.2 | 29.1 | 4.42 |
| CC1(C)O[C@H]2OC(CO)C(N=[N+]=[N-])[C@H]2O1 (some centres undefined) | > 100 | > 100 | > 100 | > 100 | > 100 | > 100 | > 100 | > 100 |  | > 100 | > 100 | > 100 | > 100 |
| O=C1/C(=C\c2cccc(Oc3ccccc3)c2)S(=O)(=O)C(c2ccccc2)N1c1cccc(Cl)c1 (centres undefined) | > 100 | > 100 | > 100 | > 100 | > 100 | > 100 | > 100 | > 100 | > 100 | > 100 | > 100 | 69 | > 100 |
